# Experimental data taken from patent US10590422B2, “Anticancer therapeutic intervention” (PHYZAT BIOPHARMACEUTICALS, LDA., priority 2017, dated 2020).
# What was measured:
# ASCT2 mRNA [1] = assay: ASCT2 gene expression (RT-qPCR, relative to GAPDH) after ASCT2 gene silencing in SK-HEP-1 cells; type: cell-based, human; conditions: at 24 h; for ASCT2 mRNA relative abundance: liver carcinoma SK-HEP-1 cells, 10 nM siRNA, treatment 6 h, 0.5% Lipofectamine 2000, FIG. 4B
# Method: (§1) SK-HEP-1, T24, HT-1080 and HCT-116 cell lines were maintained in a humidified atmosphere of 5% CO2 at 37° C. SK-HEP-1 cells were grown in RPMI-1640 (Sigma, St. Louis, Mo.) supplemented with 20% fetal bovine serum (FBS) (Gibco, UK), 100 U/mL penicillin G, 0.25 μg/mL amphotericin B, 100 μg/mL streptomycin (Gibco, UK), 25 mM sodium bicarbonate (Merck, Germany) and 25 mM N-2-hydroxyethylpiperazine-N′-2-ethanosulfonic acid (HEPES) (Sigma, St. Louis, Mo.). T24 and HT-1080 cells were grown, respectively, in Dulbecco's Modified Eagle's Medium (DMEM)—high glucose (Sigma, St. Louis, Mo.) and DMEM—low glucose (Sigma, St. Louis, Mo.), supplemented with 10% FBS (Gibco, UK), 100 U/mL penicillin G, 0.25 μg/mL amphotericin B, 100 μg/mL streptomycin (Gibco, UK), 25 mM sodium bicarbonate (Merck, Germany) and 25 mM HEPES (Sigma, St. Louis, Mo.). HCT-116 cells were grown in McCoy's 5A (Sigma, St. Louis, Mo.) supplemented with 10% FBS (Gibco, UK), 100 U/mL penicillin G, 0.25 μg/mL amphotericin B, 100 μg/mL streptomycin (Gibco, UK), 25 mM sodium bicarbonate (Merck, Germany) and 25 mM HEPES (Sigma, St. Louis, Mo.). For all cell lines the medium was changed every 2 days, and cells reached confluence 3-4 days after initial seeding. For subculturing, cells were dissociated with 0.25% trypsin-ethylenediaminetetraacetic acid (EDTA) (Sigma, St. Louis, Mo.), split 1:15 or 1:20 and subcultured in a 21-cm^2 growth area (Sarstedt, Germany).
# (§2) Total RNA was isolated and purified using the SV Total RNA Isolation System (Promega, USA) according to manufacturer's instructions. RNA quality and concentration were verified in the NanoDrop ND1000 Spectrophotometer (Thermo Scientific, USA), and RNA integrity and genomic DNA contamination were evaluated by agarose gel electrophoresis. Total RNA (1 μg) was converted into cDNA using the Maxima Scientific First Strand cDNA Synthesis Kit for RT-qPCR (Thermo Scientific, USA), according to instructions. The following protocol was used: 1st step, 10 min at 25° C.; 2nd step, 15 min at 50° C.; 3rd step, 5 min at 85° C. cDNA was used for qPCR analysis using Maxima SYBR Green qPCR Master Mix (Thermo Scientific, USA) in the StepOnePlus instrument (Applied Biosystems, USA). QuantiTect Primer Assay for LAT1 and ASCT2 and for the endogenous control gene GAPDH (Quiagen, Germany) were used. The qPCR reaction was performed in 96-well PCR plates (Sarstedt, Germany) as follows: one cycle of 10 min at 95° C., followed by 40 PCR cycles at 95° C. 15 s and 60° C. 60 s. […] No template controls were always evaluated for each target gene. Quantification cycle (Cq) values were generated automatically by the StepOnePlus 2.3 Software and the ratio of the target gene was expressed in comparison to the endogenous control gene GAPDH.
# (§3) Cells were plated in 24-well (Sarstedt, Germany) or 6-well plates (Sarstedt, Germany) or 96-well plates with black walls clear bottom (BD Biosciences, USA) and incubated 24 h under normal growth conditions. siRNAs against ASCT2 and transfection agent were diluted at desired concentrations and mixed according to transfection agent manufacturer's instructions. The mixture was incubated 20 min at RT for siRNA-complex formation, after which it was added to the cells and incubated at 37° C., 5% CO2. After the incubation period, serum and antibiotic was restored and cells were further incubated at normal conditions for the desired time points until evaluation of ASCT2 activity or ASCT2 expression (immunoblotting and RT-qPCR).
# ASCT2 [2] = assay: ASCT2 activity: [^14C]-L-alanine uptake in SK-HEP-1 cells after ASCT2 gene silencing; type: cell-based, human; conditions: ASCT2 siRNA; general statement, conditions not given
# Method: (§4) Cells were plated in 24-well plates (Sarstedt, Germany) and grown until confluence was reached. On the day of the experiment, Cell culture medium was aspirated and cells were preincubated for 15 min in Hanks' medium (ChCl 140 mM, KCl 5 mM, MgSO4.7H2O 0.8 mM, K2HPO4 0.33 mM, KH2PO4 0.44 mM, MgCl2.6H2O 1 mM, CaCl2) 0.025 mM, Tris-HCl 9.75 mM, pH 7.4). Uptake was initiated by the addition of Hanks' medium with 0.25 μM [^14C]-L-alanine in the absence and in the presence of 3 mM unlabeled L-alanin. During preincubation and incubation cells were continuously shaken and maintained at 37° C. Uptake was terminated after 1 min by rapid removal of uptake solution by means of a vacuum pump connected to a Pasteur pipette, followed by a rapid wash with Hanks' medium. Subsequently, cells were solubilized in 0.1% vol/vol Triton X-100 (dissolved in 5 mM Tris-HCl, pH 7.4), and radioactivity was measured by liquid scintillation counting.
# as §3
# ASCT2 [3] = assay: ASCT2 activity: [^14C]-L-alanine uptake in fibrosarcoma HT-1080 cells after ASCT2 gene silencing; type: cell-based, human; conditions: fibrosarcoma HT-1080 cells; 5 nM siRNA; treatment 6 h; at 48 h; 0.4% Lipofectamine 2000; FIG. 8B
# Method: as §4, §3
# ASCT2 mRNA [4] = assay: ASCT2 gene expression (RT-qPCR) after ASCT2 gene silencing in human colon cancer HTC-116 cells; type: cell-based; conditions: treatment 6 h
# Method: as §1, §2, §3
# [5] = tested on: human colon cancer HTC-116 cells; assay: Cell proliferation assay (calcein-AM) in human colon cancer HTC-116 cells; type: cell-based; conditions: for cell proliferation / proliferation: treatment 6 h; for cell proliferation: 72 h exposure; for proliferation: at 72 h, 0.17% Lipofectamine 2000 or 0.1% Injectin, FIGS. 19B and 20B
# Method: as §1
# Cell proliferation was measured using calcein-AM (Thermo Fisher Scientific, USA). The membrane permeant calcein-AM, a nonfluorescent dye, is taken up and converted by intracellular esterases to membrane impermeant calcein, which emits green fluorescence. Cells were plated in 96-well plates with black walls clear bottom (BD Biosciences, USA) and incubated 24 h under normal growth conditions. Cells were incubated with test items at 37° C., 5% C02. After the incubation period, serum and antibiotic was restored and cells were further incubated at normal conditions during 72 h. After treatment with test substances or vehicle, cells were washed twice with Hanks' medium and loaded with 2 μM calcein-AM in Hanks' medium, at 37° C. for 30 min. Fluorescence was measured at 485 nm excitation and 530 nm emission wavelengths in a microplate spectrofluorometer (Gemini EM, Molecular Devices). Nine consecutive fluorescence measurements are performed per well, to allow fluorescence readings in the whole area of the well, which was then considered for the calculation of mean fluorescence per well. To determine minimum staining for calcein (calceinmin), eight wells were treated with ethanol 30 min before calcein-AM addition. The percent cell number is calculated as [(calceinsample)/(calceincontrol)]×100.
# LAT1 = LAT1 activity: [^14C]-L-leucine uptake in fibrosarcoma HT-1080 cells after LAT1 gene silencing; type: cell-based, human; conditions: 5 nM siRNA, treatment 6 h, at 48 h, 0.4% Lipofectamine 2000, FIG. 8A
# Method: as §4, with “experiment, cell” for “experiment, Cell”, “medium (NaCl” for “medium (ChCl”, “by” for “by the”, “μM [^14C]-L-leucine” for “μM [^14C]-L-alanine”, “unlabeled L-leucine.” for “unlabeled L-alanin.”
# as §3, with “LAT1” for “ASCT2”
# LAT1 mRNA = assay: LAT1 gene expression (RT-qPCR) after LAT1 gene silencing in human colon cancer HTC-116 cells; type: cell-based; conditions: treatment 6 h
# Method: as §1, §2
# as §3, with “LAT1” for “ASCT2”
# [6] = 5 or 25 nM siRNA, at 24 h or 48 h, 0.5% Lipofectamine 2000, FIGS. 9B and 9C
# [7] = 72 h, 0.17% Lipofectamine 2000 or 0.1% Injectin, FIG. 20A
# [8] = 5 or 25 nM siRNA, at 24 h or 48 h, 0.5% Lipofectamine 2000, FIGS. 9A and 9C
# [9] = 72 h, 0.17% Lipofectamine 2000 or 0.1% Injectin, FIG. 19A
Substance,ASCT2 mRNA relative abundance (ASCT2 mRNA [1]),inhibiting sodium-independent [^14C]-L-leucine transport (ASCT2 [2]),[^14C]-L-alanine (0.25 μM) uptake at initial rate of uptake (1 min) (ASCT2 [3]),ASCT2 mRNA relative abundance (ASCT2 mRNA [4]; [6]),ASCT2 mRNA relative abundance (ASCT2 mRNA [4]; [7]),"cell proliferation ([5]; 0.1% Injectin, FIG. 14)",proliferation [5],[^14C]-L-leucine (0.25 μM) uptake at initial rate of uptake (1 min) (LAT1),LAT1 mRNA relative abundance (LAT1 mRNA; [8]),LAT1 mRNA relative abundance (LAT1 mRNA; [9]),also measured
278 (TGCCACGGTCGCCTCTGAGAA; chemistry not given here) [compound 278],decreased,particularly effective,–,–,–,–,–,–,–,–,"Effect on ASCT2 mRNA relative abundance compared with SEQ ID NO: 267 (ASCT2 mRNA [1]; SK-HEP-1 cells, 10 nM, p<0.05): significantly greater"
278/367/408 (sense UGCCACGGUCGCCUCUGAGAA; antisense UUCUCAGAGGCGACCGUGGCA; chemistry not given here),–,–,decreased,decreased,significantly decreased,decreased,significantly decreased,–,–,–,–
237 (AATTACGTGGACCGTACGGAG; chemistry not given here) [compound 237],decreased,particularly effective,–,–,–,–,–,–,–,–,–
61/165/396 (sense CGUGAACUGCUACAGCGUGAA; antisense UUCACUCUGUAGCAGUUCACG; chemistry not given here),–,–,–,–,–,decreased,significantly decreased,decreased,decreased,significantly decreased,–
225 (AATAATGGCGTGGCCAAGCAC; chemistry not given here) [compound 225],decreased,particularly effective,–,–,–,–,–,–,–,–,–
267/356/402 (sense CCGGUCCUGUACCGUCCUCAA; antisense UUGAGGACGGUACAGGACCGG; chemistry not given here),–,–,decreased,decreased,significantly decreased,decreased,significantly decreased,–,–,–,–
61/391/392 (chain 1 CGUGAACUGCUACAGCGUGAATT; chain 2 UUCACUCUGUAGCAGUUCACGTT; siRNA; sugars by position and backbone not given here; further chemistry not fully specified),–,–,–,–,–,decreased,significantly decreased,decreased,decreased,significantly decreased,"Effect of 5-fluoruracil upon proliferation in combination with the siRNA ([5]; 5-FU 10 μM, siRNA 25 nM, 72 h, 0.037% Injectin, FIG. 17A): not"
267 (CCGGTCCTGTACCGTCCTCAA; chemistry not given here) [compound 267],decreased,particularly effective,–,–,–,–,–,–,–,–,–
267/397/398 (sense CCGGUCCUGUACCGUCCUCAATT; antisense UUGAGGACGGUACAGGACCGGTT; siRNA; sugars by position and backbone not given here; further chemistry not fully specified),–,–,decreased,decreased,significantly decreased,decreased,significantly decreased,–,–,–,"Effect on cell proliferation compared with SEQ ID NO: 267/356/402 ([5]; 72 h, 0.1% Injectin, p<0.05): significantly greater; Effect of siRNA-LAT1 SEQ ID NO: 58/387/388 upon proliferation in combination with the siRNA-ASCT2 ([5]; 72 h, siRNA-ASCT2 at non-efficacious conditions (0.037% Injectin), FIG. 18): enhanced; cell proliferation ([5]; increasing Injectin (0.037% to 0.15%), FIG. 15): decreased"
58/162/411 (sense CUUCGCCACCUACCUGCUCAA; antisense UUGAGCAGGUAGGUGGCGAAG; chemistry not given here),–,–,–,–,–,decreased,significantly decreased,decreased,decreased,significantly decreased,–
